The target in this test is MAPK14 (human) (UniProt Q16539). The experiment in a line: Assessment of MAPK14 Kinase Activity.
Chain of MAPK14 (human) (Q16539 whole entry, looked up): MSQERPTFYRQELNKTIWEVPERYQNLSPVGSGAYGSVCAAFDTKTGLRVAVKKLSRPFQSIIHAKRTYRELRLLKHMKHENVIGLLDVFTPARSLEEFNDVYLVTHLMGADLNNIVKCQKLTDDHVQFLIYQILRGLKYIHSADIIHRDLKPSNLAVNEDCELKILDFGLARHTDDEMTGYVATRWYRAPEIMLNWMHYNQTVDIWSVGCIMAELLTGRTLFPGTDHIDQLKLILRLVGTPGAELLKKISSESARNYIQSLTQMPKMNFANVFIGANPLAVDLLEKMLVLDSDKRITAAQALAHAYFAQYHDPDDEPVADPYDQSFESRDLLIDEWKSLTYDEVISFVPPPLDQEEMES

The molecule `C#Cc1cc(NC(=O)Nc2sc(C(C)(C)C)cc2C(=O)N2CCNC(=O)C2(C)C)ccc1C` registered a half-maximal inhibitory concentration (IC50) below 0.1 µM.

Regarding `CN1CCN(CCCOc2ccc(-c3cccc(NC(=O)Nc4sc(C(C)(C)C)cc4C(=O)N4CCNC(=O)C4(C)C)c3)cn2)CC1`, the concentration for half-maximal inhibition (IC50) is below 0.1 µM.

`Cc1ccc(NC(=O)Nc2sc(C(C)(C)C)cc2C(=O)N2CCNC(=O)C2(C)C)cc1-c1ccccn1` returned a concentration for half-maximal inhibition (IC50) below 0.1 µM.

As to `CCNC(=O)c1ccc(-c2cc(NC(=O)Nc3cn(C(C)(C)C)nc3C(=O)N3CCNC(=O)C3(C)C)ccc2C)cn1`, the IC50 was below 0.1 µM.

As for `Cc1ccc(NC(=O)Nc2cc(C(C)(C)C)sc2C(=O)N2CCN(C)C(=O)C2)cc1-c1ccc(CN2CCOCC2)nc1`, the IC50 was below 0.1 µM.

As to `CCc1ccc(-c2cc(NC(=O)Nc3sc(C(C)(C)C)cc3C(=O)N3CCN(C)C(=O)C3(C)C)cc(F)c2C)cn1`, the IC50 was below 0.1 µM.

In turn, `Cc1ccc(NC(=O)Nc2sc(C(C)(C)C)cc2C(=O)N2CCNC(=O)C2(C)C)cc1-c1cccc[n+]1[O-]` showed an IC50 below 0.1 µM.

As for `CC(C)(C)c1cc(C(=O)N2CCNC(=O)C2(C)C)c(NC(=O)Nc2cccc(-c3ccc(OCCN4CCOCC4)nc3)c2)s1`, the IC50 is below 0.1 µM.

`CC(C)(C)c1cc(C(=O)N2CCNC(=O)C2(C)C)c(NC(=O)Nc2cccc(-c3ccnc(F)c3)c2)s1`: the IC50 is below 0.1 µM.

Consider `Cc1c(NC(=O)Nc2sc(C(C)(C)C)cc2C(=O)N2CCNC(=O)C2(C)C)cccc1-c1ccc(N2CCOCC2)nc1`, for which the IC50 is below 0.1 µM.

In the case of `Cc1ccc(NC(=O)Nc2cn(C(C)(C)C)nc2C(=O)N2CCN(C)C(=O)C2(C)C)cc1-c1ccc(CN2CCOCC2)nc1`, the IC50 is below 0.1 µM.

The molecule `CC(C)(C)c1cc(C(=O)N2CCNC(=O)C2(C)C)c(NC(=O)Nc2ccc(F)c(-c3ccc(OCCN4CCOCC4)nc3)c2)s1` showed an IC50 below 0.1 µM.

`CCc1ccc(-c2cc(NC(=O)Nc3sc(C(C)(C)C)cc3C(=O)N3CCN(C)C(=O)C3(C)C)ccc2C)nc1` displayed a 50% inhibitory concentration (IC50) below 0.1 µM.

The molecule `Cc1nc(-c2cccc(NC(=O)Nc3sc(C(C)(C)C)cc3C(=O)N3CCNC(=O)C3(C)C)c2)cs1` displayed a half-inhibitory concentration (IC50) below 0.1 µM.

For `CCC(C)(C)c1cc(C(=O)N2CCN(C)C(=O)C2(C)C)c(NC(=O)Nc2ccc(C)c(-c3ccc(CN4CCOCC4)nc3)c2)s1`, the half-inhibitory concentration (IC50) was below 0.1 µM.

Regarding `Cc1ccc(NC(=O)Nc2sc(C(C)(C)C)cc2C(=O)N2CCNC(=O)C2(C)C)cc1-c1ccc(C(C)O)nc1` (centres undefined), the IC50 was below 0.1 µM.

Consider `Cc1ccc(NC(=O)Nc2sc(C(C)(C)C)cc2C(=O)N2CCNC(=O)C2(C)C)cc1C#Cc1ccccn1`, for which the half-inhibitory concentration (IC50) was below 0.1 µM.

As for `Cc1ccc(NC(=O)Nc2cn(C(C)(C)C)nc2C(=O)N2CCNC(=O)C2(C)C)cc1-c1ccc(CN2CCOCC2)cn1`, the half-inhibitory concentration (IC50) is below 0.1 µM.

Consider `CC(C)(C)c1cc(C(=O)N2CCNC(=O)C2(C)C)c(NC(=O)Nc2cccc(-c3ccc(OCCCc4ccccn4)nc3)c2)s1`, for which the half-inhibitory concentration (IC50) was below 0.1 µM.

For `Cc1ncc(NC(=O)Nc2sc(C(C)(C)C)cc2C(=O)N2CCNC(=O)C2(C)C)cc1-c1ccc(N2CCOCC2)nc1`, the IC50 is below 0.1 µM.

In the case of `Cc1ccc(NC(=O)Nc2cn(C(C)(C)C)nc2C(=O)N2CCNC(=O)C2(C)C)cc1-c1ccc(C(C)C)nc1`, the IC50 was below 0.1 µM.

Take `COc1ccc(-c2ccc(C)c(NC(=O)Nc3sc(C(C)(C)C)cc3C(=O)N3CCNC(=O)C3(C)C)c2)cn1`: the IC50 is below 0.1 µM.

As to `CCNC(=O)c1ccc(-c2cc(NC(=O)Nc3sc(C(C)(C)C)nc3C(=O)N3CCN(C)C(=O)C3(C)C)ccc2C)cn1`, the IC50 was below 0.1 µM.

Take `Cc1ccc(NC(=O)Nc2sc(C(C)(C)C)cc2C(=O)N2CCN(C)C(=O)C2(C)C)cc1-c1ccc(C(=O)N2CCOCC2)nc1`: the half-inhibitory concentration (IC50) is below 0.1 µM.

Molecule `Cc1ccc(NC(=O)Nc2sc(C(C)(C)C)cc2C(=O)N2CCNC(=O)C2(C)C)cc1-c1cnc(N2CCOCC2)nc1` showed a half-inhibitory concentration (IC50) below 0.1 µM.

Take `Cc1cc(NC(=O)Nc2cc(C(C)(C)C)sc2C(=O)N2CCNC(=O)C2(C)C)cc(-c2ccc(N3CCOCC3)cn2)c1`: the IC50 is below 0.1 µM.

As to `Cc1ccc(NC(=O)Nc2sc(C(C)(C)C)cc2C(=O)N2CCNC(=O)CC2)cc1-c1cnc(N2CCOCC2)nc1`, the IC50 was below 0.1 µM.

`Cc1ccc(NC(=O)Nc2cn(C(C)(C)C)nc2C(=O)N2CCNC(=O)C2(C)C)cc1-c1cccnc1` yielded an IC50 below 0.1 µM.

Take `CCc1ccc(-c2cc(NC(=O)Nc3cc(C(C)(C)C)sc3C(=O)N3CCN(C)C(=O)C3(C)C)ccc2C)cn1`: the 50% inhibitory concentration (IC50) was below 0.1 µM.

`Cc1ccc(NC(=O)Nc2sc(C(C)(C)C)cc2C(=O)N2CCNC(=O)C2(C)C)cc1C#N` gave an IC50 below 0.1 µM.

`Cc1ccc(NC(=O)Nc2sc(C(C)(C)C)cc2C(=O)N2CCNC(=O)C2(C)C)cc1-c1ccc(CN)nc1` showed an IC50 below 0.1 µM.

`Cc1ccc(NC(=O)Nc2sc(C(C)(C)C)cc2C(=O)N2CCNC(=O)C2(C)C)cc1-c1ccc(N2CCC(N)C2)nc1` (centres undefined) yielded an IC50 below 0.1 µM.

Molecule `Cc1ccc(NC(=O)Nc2cc(C(C)(C)C)sc2C(=O)N2CCN(C(C)C)C(=O)C2(C)C)cc1-c1ccc(CN2CCOCC2)nc1` yielded an IC50 below 0.1 µM.

In turn, `Cc1ccc(NC(=O)Nc2sc(C(C)(C)C)nc2C(=O)N2CCN(C)C(=O)C2(C)C)cc1-c1ccc(CN2CCOCC2)cn1` had a 50% inhibitory concentration (IC50) below 0.1 µM.

`Cc1ccc(NC(=O)Nc2sc(C(C)(C)C)cc2C(=O)N2CCNC(=O)C2(C)C)cc1-c1ccc(C(C)C)nc1` came in with an IC50 below 0.1 µM.

The molecule `CC(C)(C)c1cc(C(=O)N2CCNC(=O)C2(C)C)c(NC(=O)Nc2cccc(-c3cccnc3)c2)s1` gave an IC50 below 0.1 µM.

As to `Cc1ccc(NC(=O)Nc2sc(C(C)(C)C)cc2C(=O)N2CCNC(=O)C2(C)C)cc1-c1ccc(NCC(C)C)nc1`, the half-inhibitory concentration (IC50) is below 0.1 µM.

For `CCNC(=O)c1ccc(-c2cc(NC(=O)Nc3cn(C(C)(C)C)nc3C(=O)N3CCN(C)C(=O)C3(C)C)ccc2C)cn1`, the half-inhibitory concentration (IC50) was below 0.1 µM.

The molecule `Cc1ccc(NC(=O)Nc2sc(C(C)(C)C)cc2C(=O)N2CCNC(=O)C2(C)C)cc1-c1ccncc1` registered an IC50 below 0.1 µM.

Take `COC(=O)CN1CCN(C(=O)c2cc(C(C)(C)C)sc2NC(=O)Nc2ccc(C)c(-c3ccncc3)c2)C(C)(C)C1=O`: the IC50 is below 0.1 µM.

Take `COCCOCC#Cc1cc(NC(=O)Nc2sc(C(C)(C)C)cc2C(=O)N2CCNC(=O)C2(C)C)ccc1C`: the IC50 was below 0.1 µM.

In turn, `CCNC(=O)c1ccc(-c2cc(NC(=O)Nc3sc(C(C)(C)C)cc3C(=O)N3CCN(C)C(=O)C3(C)C)ccc2C)cn1` came in with a half-maximal inhibitory concentration (IC50) below 0.1 µM.

As to `Cc1ccc(NC(=O)Nc2sc(C(C)(C)C)cc2C(=O)N2CCNC(=O)C2(C)C)cc1-c1ccc(N2CCOCC2)nc1`, the half-inhibitory concentration (IC50) was below 0.1 µM.

As to `Cc1ccc(NC(=O)Nc2oc(C(C)(C)C)cc2C(=O)N2CCNC(=O)C2(C)C)cc1-c1ccncc1`, the half-maximal inhibitory concentration (IC50) was below 0.1 µM.

Molecule `Cc1ccc(-c2cc(NC(=O)Nc3sc(C(C)(C)C)cc3C(=O)N3CCNC(=O)C3(C)C)ccc2C)nn1` came in with a half-maximal inhibitory concentration (IC50) below 0.1 µM.

`Cc1ccc(NC(=O)Nc2cc(C(C)(C)C)sc2C(=O)N2CCN(C)C(=O)C2(C)C)cc1-c1ccc(CN2CCOCC2)nc1` returned an IC50 below 0.1 µM.

On to `Cc1ccc(NC(=O)Nc2sc(C(C)(C)C)cc2C(=O)N2CCN(C)C(=O)C2(C)C)cc1-c1ccc(CN2CCCC2)nc1`, for which the 50% inhibitory concentration (IC50) was below 0.1 µM.

With `Cc1ccc(NC(=O)Nc2sc(C(C)(C)C)cc2C(=O)N2CCNC(=O)C2(C)C)cc1-c1ccc(OCCCN(C)C)nc1`, the 50% inhibitory concentration (IC50) was below 0.1 µM.

`COc1ccc(-c2cc(NC(=O)Nc3cc(C(C)(C)C)sc3C(=O)N3CCN(CCO)C(=O)C3(C)C)ccc2C)cn1` came in with an IC50 below 0.1 µM.

`Cc1ccc(NC(=O)Nc2sc(C(C)(C)C)cc2C(=O)N2CCNC(=O)C2(C)C)cc1-c1ccc(CN2CCOCC2)nc1` had an IC50 below 0.1 µM.

In turn, `Cc1ccc(NC(=O)Nc2sc(C(C)(C)C)cc2C(=O)N2CCNC(=O)C2(C)C)cc1-c1ccc(OCCCN2CCN(C)CC2)nc1` gave an IC50 below 0.1 µM.

As to `Cc1ccc(NC(=O)Nc2sc(C(C)(C)C)cc2C(=O)N2CCNC(=O)C2(C)C)cc1C#CCOCCN1CCOCC1`, the 50% inhibitory concentration (IC50) is below 0.1 µM.

Regarding `Cc1ncc(NC(=O)Nc2sc(C(C)(C)C)cc2C(=O)N2CCN(C)C(=O)C2(C)C)cc1C#CC1CC1`, the IC50 is below 0.1 µM.

Molecule `Cc1ccc(NC(=O)Nc2sc3c(c2C(=O)N2CCN(C)C(=O)C2(C)C)CCOC3)cc1-c1ccc(CN2CCOCC2)nc1` yielded a half-inhibitory concentration (IC50) of 0.1 to 1 µM.

Molecule `Cc1nnc(-c2ccc(-c3cc(NC(=O)Nc4sc(C(C)(C)C)nc4C(=O)N4CCN(C)C(=O)C4(C)C)ccc3C)cn2)o1` displayed an IC50 below 0.1 µM.

The molecule `Cc1ccc(NC(=O)Nc2sc(C(C)(C)C)cc2C(=O)N2CCNC(=O)C2(C)C)cc1-c1ccc(OCCCc2ccccn2)nc1` gave a 50% inhibitory concentration (IC50) below 0.1 µM.

In turn, `CCNC(=O)c1ccc(-c2cc(NC(=O)Nc3cc(C(C)(C)C)oc3C(=O)N3CCN(C)C(=O)C3(C)C)ccc2C)cn1` registered an IC50 below 0.1 µM.

`COc1ccc(-c2cc(NC(=O)Nc3sc(C(C)(C)C)cc3C(=O)N3CCN(C)C(=O)C3(C)C)ccc2C)cn1` gave an IC50 below 0.1 µM.

In turn, `COc1ccc(-c2cc(NC(=O)Nc3cc(C(C)(C)C)sc3C(=O)N3CCNC(=O)C3(C)C)ccc2C)cn1` registered an IC50 below 0.1 µM.

In turn, `CCc1ccc(-c2cc(NC(=O)Nc3sc(C(C)(C)C)cc3C(=O)N3CCN(C)C(=O)C3(C)C)ccc2C)cn1` gave an IC50 below 0.1 µM.

`Cc1ccc(NC(=O)Nc2sc(C(C)(C)C)cc2C(=O)N2CCN(C(=O)CN(C)C)CC2)cc1-c1cccnc1` gave an IC50 of 0.1 to 1 µM.

Take `Cc1ccc(NC(=O)Nc2sc(C(C)(C)C)cc2C(=O)N2CCNC(=O)C2(C)C)cc1C#C[Si](C)(C)C`: the IC50 is below 0.1 µM.

`Cc1ccc(NC(=O)Nc2sc(C(C)(C)C)cc2C(=O)N2CCN(C)C(=O)C2(C)C)cc1-c1ccc(NS(C)(=O)=O)nc1` displayed an IC50 below 0.1 µM.

For `CCc1ccc(-c2cc(NC(=O)Nc3sc(C(C)(C)C)cc3C(=O)N3CCNC(=O)C3(C)C)ccc2C)nc1`, the half-maximal inhibitory concentration (IC50) was below 0.1 µM.

Consider `COc1ccc(-c2cc(NC(=O)Nc3sc(C(C)(C)C)cc3C(=O)N3CCC(=O)N(C)CC3)ccc2C)cn1`, for which the concentration for half-maximal inhibition (IC50) was below 0.1 µM.

On to `CCN(CC)Cc1ccc(-c2cc(NC(=O)Nc3sc(C(C)(C)C)cc3C(=O)N3CCN(C)C(=O)C3(C)C)ccc2C)cn1`, for which the 50% inhibitory concentration (IC50) was below 0.1 µM.

Turning to `Cc1ccc(NC(=O)Nc2sc(C(C)(C)C)cc2C(=O)N2CCNC(=O)C2(C)C)cc1-c1cccnc1`, the half-maximal inhibitory concentration (IC50) was below 0.1 µM.

As for `COc1ccc(NC(=O)Nc2sc(C(C)(C)C)cc2C(=O)N2CCNC(=O)C2(C)C)c(C)c1-c1ccncc1`, the half-inhibitory concentration (IC50) was below 0.1 µM.

Molecule `CCNC(=O)c1ccc(-c2cc(NC(=O)Nc3cc(C(C)(C)C)sc3C(=O)N3CCNC(=O)C3(C)C)ccc2C)cn1` came in with an IC50 below 0.1 µM.

Usually IC50 stands for the concentration that inhibits the measured activity by half. Low values mean higher potency, high ones lower potency.

The values are drawn from the Kinase Knowledgebase extract (Sharma et al. 2016).
